Measured values from patent publication US10273223B2, “Substituted 6,5-fused bicyclic heteroaryl compounds” (Epizyme, Inc., priority 2011, dated 2019).
pIC50: −log10 of the molar value.

What follows are compounds tested against EZH2 (PRC2 enzyme complex: EZH2, EED, Suz12, RbAp48) (Homo sapiens (Human), UniProt Q15910) (assay: PRC2 enzyme assay on peptide substrates (3H-SAM Flashplate)). Conditions: read-out: EZH2 IC50; PRC2 enzyme assays on peptide substrates; 4 nM enzyme, 30 min preincubation at 25° C.; EZH2 form (wild-type or Y641 mutant) not stated in tables.
EZH2 (PRC2 enzyme complex: EZH2, EED, Suz12, RbAp48) (Homo sapiens (Human), UniProt Q15910), sequence (Q15910 other isoform, or with tags, fused parts or gaps): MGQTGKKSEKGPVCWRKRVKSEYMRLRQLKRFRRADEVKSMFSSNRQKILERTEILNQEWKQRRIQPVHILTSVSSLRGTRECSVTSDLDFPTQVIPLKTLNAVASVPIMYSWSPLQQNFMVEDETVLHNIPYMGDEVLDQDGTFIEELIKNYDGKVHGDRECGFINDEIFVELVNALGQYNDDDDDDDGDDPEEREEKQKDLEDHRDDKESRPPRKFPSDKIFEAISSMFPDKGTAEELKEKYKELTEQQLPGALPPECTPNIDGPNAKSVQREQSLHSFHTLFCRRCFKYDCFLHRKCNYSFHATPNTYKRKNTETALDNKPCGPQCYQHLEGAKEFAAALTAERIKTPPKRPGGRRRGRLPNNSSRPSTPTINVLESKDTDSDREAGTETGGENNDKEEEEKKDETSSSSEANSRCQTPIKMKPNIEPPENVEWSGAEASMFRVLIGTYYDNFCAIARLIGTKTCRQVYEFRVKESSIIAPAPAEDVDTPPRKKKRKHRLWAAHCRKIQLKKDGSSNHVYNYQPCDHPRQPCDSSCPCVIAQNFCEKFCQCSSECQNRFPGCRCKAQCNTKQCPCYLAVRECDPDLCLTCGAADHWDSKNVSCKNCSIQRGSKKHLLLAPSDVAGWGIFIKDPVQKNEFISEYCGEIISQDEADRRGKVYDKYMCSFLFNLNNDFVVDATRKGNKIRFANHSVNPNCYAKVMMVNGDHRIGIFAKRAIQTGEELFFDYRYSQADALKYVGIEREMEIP
EZH2 (PRC2 enzyme complex: EZH2, EED, Suz12, RbAp48) (Homo sapiens (Human), UniProt Q15910), sequence (O75530 whole entry partner): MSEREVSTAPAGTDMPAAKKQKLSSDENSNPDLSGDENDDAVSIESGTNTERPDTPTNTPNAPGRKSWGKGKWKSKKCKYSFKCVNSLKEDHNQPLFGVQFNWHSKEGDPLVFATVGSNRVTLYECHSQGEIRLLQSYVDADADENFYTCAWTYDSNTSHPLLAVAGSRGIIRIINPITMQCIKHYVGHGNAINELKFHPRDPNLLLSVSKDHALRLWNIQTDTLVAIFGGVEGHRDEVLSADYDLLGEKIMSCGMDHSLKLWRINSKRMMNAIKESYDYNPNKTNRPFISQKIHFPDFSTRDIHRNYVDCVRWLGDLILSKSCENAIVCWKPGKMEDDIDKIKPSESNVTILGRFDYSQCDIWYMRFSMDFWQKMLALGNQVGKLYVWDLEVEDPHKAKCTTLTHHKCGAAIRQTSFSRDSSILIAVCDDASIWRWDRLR
EZH2 (PRC2 enzyme complex: EZH2, EED, Suz12, RbAp48) (Homo sapiens (Human), UniProt Q15910), sequence (Q15022 whole entry partner): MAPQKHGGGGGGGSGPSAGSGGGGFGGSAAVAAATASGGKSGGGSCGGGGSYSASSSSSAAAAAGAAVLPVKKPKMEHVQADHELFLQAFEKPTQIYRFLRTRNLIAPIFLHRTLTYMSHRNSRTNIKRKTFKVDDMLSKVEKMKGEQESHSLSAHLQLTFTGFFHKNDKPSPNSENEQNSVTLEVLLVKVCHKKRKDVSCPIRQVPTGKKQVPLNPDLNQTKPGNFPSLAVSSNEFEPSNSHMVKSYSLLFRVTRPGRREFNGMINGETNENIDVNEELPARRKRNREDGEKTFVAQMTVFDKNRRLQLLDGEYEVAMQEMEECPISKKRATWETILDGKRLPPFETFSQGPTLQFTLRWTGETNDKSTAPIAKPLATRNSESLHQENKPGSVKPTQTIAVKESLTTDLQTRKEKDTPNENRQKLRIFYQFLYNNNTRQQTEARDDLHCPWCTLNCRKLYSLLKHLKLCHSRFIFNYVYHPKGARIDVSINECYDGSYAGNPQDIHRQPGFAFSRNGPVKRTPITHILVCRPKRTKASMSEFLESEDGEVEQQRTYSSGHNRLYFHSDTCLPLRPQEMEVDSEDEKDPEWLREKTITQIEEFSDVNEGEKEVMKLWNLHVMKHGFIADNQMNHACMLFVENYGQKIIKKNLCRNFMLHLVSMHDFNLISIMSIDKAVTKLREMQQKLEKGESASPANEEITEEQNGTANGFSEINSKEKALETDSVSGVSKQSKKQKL
EZH2 (PRC2 enzyme complex: EZH2, EED, Suz12, RbAp48) (Homo sapiens (Human), UniProt Q15910), sequence (Q09028 whole entry partner): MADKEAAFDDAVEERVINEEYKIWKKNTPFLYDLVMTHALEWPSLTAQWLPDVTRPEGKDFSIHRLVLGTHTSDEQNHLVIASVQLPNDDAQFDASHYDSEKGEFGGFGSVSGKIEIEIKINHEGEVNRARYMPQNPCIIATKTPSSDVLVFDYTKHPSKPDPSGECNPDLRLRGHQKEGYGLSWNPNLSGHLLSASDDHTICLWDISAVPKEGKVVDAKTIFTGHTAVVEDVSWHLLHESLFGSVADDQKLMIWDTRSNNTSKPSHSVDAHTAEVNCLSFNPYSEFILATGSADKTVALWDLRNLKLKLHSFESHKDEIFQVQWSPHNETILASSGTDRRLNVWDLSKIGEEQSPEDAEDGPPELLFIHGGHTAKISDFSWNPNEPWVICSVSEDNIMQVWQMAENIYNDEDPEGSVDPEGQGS

pIC50	Structure (SMILES)
> 6.52	Cc1cc(C)c(CNC(=O)c2cc(C3CC(C)(C)NC(C)(C)C3)nc3c2cnn3C2CCCC2)c(=O)[nH]1 [Compound B-4, 1-cyclopentyl-N-((4,6-dimethyl-2-oxo-1,2-dihydropyridin-3-yl)methyl)-6-(2,2,6,6-tetramethylpiperidin-4-yl)-1H-pyrazolo[3,4-b]pyridine-4-carboxamide]
> 6.52	CNCCN1CCC(c2cc(C(=O)NCC3=C(C)C=C(C)NC3C)c3cnn(C4CCCC4)c3c2)CC1 [Compound D-51]
> 6.52	CC1=CC(C)=C(CNC(=O)c2cc(C3=CCN(C(=O)C4CN(C)C4)CC3)cc3c2cnn3C2CCCC2)C(C)N1 [Compound D-50]

These compounds were tested against EZH2 (PRC2 enzyme complex: EZH2, EED, Suz12, RbAp48) (Homo sapiens (Human), UniProt O75530+Q09028+Q15022+Q15910) in the same assay as above. Conditions: not given.
EZH2 (PRC2 enzyme complex: EZH2, EED, Suz12, RbAp48) (Homo sapiens (Human), UniProt O75530+Q09028+Q15022+Q15910), sequence (Q15910 other isoform, or with tags, fused parts or gaps): as the sequence (Q15910 other isoform, or with tags, fused parts or gaps) above
EZH2 (PRC2 enzyme complex: EZH2, EED, Suz12, RbAp48) (Homo sapiens (Human), UniProt O75530+Q09028+Q15022+Q15910), sequence (O75530 whole entry partner): as the sequence (O75530 whole entry partner) above
EZH2 (PRC2 enzyme complex: EZH2, EED, Suz12, RbAp48) (Homo sapiens (Human), UniProt O75530+Q09028+Q15022+Q15910), sequence (Q15022 whole entry partner): as the sequence (Q15022 whole entry partner) above
EZH2 (PRC2 enzyme complex: EZH2, EED, Suz12, RbAp48) (Homo sapiens (Human), UniProt O75530+Q09028+Q15022+Q15910), sequence (Q09028 whole entry partner): as the sequence (Q09028 whole entry partner) above

Structure (SMILES)	pIC50
CNCCN(C)Cc1cccc(-c2cc(C(=O)NCc3c(C)cc(C)[nH]c3=O)c3cnn(C(C)C)c3n2)c1 [Compound A-58]	5.52 to 6.00
Cc1cc(C)c(CNC(=O)c2c(Cl)c(-c3ccc4c(c3)OCCO4)nc3c2cnn3C(C)C)c(=O)[nH]1 [Compound A-47]	6.00 to 6.52
Cc1cc[nH]c(=O)c1CNC(=O)c1cc(-c2ccc3c(c2)OCCO3)nc2c1cnn2C(C)(C)C [Compound A-77]	4.30 to 5.00
Cc1cc(C)n(C)c(=O)c1CNC(=O)c1cc(-c2cccc(CN(C)CCN(C)C)c2)nc2c1cnn2C(C)C [Compound A-74]	4.30 to 5.00
Cc1cc(C)c(CNC(=O)c2cc(-c3cccc(CNCCCN(C)C)c3)nc3c2cnn3C(C)C)c(=O)[nH]1 [Compound A-125]	5.52 to 6.00
Cc1cc(C)c(CNC(=O)c2cc(-c3cccc(CN(C)CCN4CCCC4)c3)nc3c2cnn3C(C)C)c(=O)[nH]1 [Compound A-41]	6.00 to 6.52
Cc1cc(C)c(CNC(=O)c2cc(-c3ccccc3CN)nc3c2cnn3C(C)C)c(=O)[nH]1 [Compound A-68]	5.00 to 5.52

Now from value to compound:

pIC50	Structure (SMILES)
4.30 to 5.00	Cc1cc(C(C)C)c(CNC(=O)c2cc(C3=CC(C)(C)NC(C)(C)C3)nc3c2cnn3C(C)C)c(=O)[nH]1 [Compound B-148]
5.52 to 6.00	Cc1cc(C)c(CNC(=O)c2cc(C(C)C)nc3c2cnn3C(C)C)c(=O)[nH]1 [Compound B-109]
